Legend:
[1] = system: U-118 MG; assay: MTT assay, U-118 MG; type: cell-based; settings: Homo sapiens, 24 h of incubation, read-out: IC50 values ± SEM, MTT assay
Description: Human glioblastoma cell lines (A172 CRL-1620™, U-87 MG HTB-14™, U-118 MG HTB-15™, T98G CRL-1690™) and the mouse astrocyte cell line (C8-D1A CRL-2541™) were obtained from the American Type Culture Collection (ATCC, Manassas, VA, USA). The cell lines were cultured in complete medium: DMEM (Corning, Kennebunk, ME, USA) for C8-D1A and T98G, and EMEM (ATCC, Manassas, VA, USA) for A172, U-87 MG, U118MG. The media were supplemented with 10% foetal bovine serum (Eurx, Gdansk, Poland) and 1% penicillin-streptomycin solution (Corning, Kennebunk, ME, USA). Cells were cultured in cell culture flasks (Sarstedt, Numbrecht, Germany) at 37 °C in 5% CO2. For experiments, cells were washed with phosphate-buffered saline without calcium and magnesium (Corning, Kennebunk, ME, USA) and treated with 0.05% trypsin and 0.02% EDTA (Corning, Kennebunk, ME, USA). Cells were counted using a Sceptre 3.0 cell counter (Merck Millipore, Burlington, MA, USA) prior to seeding into plates. For 6-well plates, 5 x 10^5 cells/mL were seeded, while for 96-well plates (Sarstedt, Numbrecht, Germany), 1 x 10^5 cells/mL were seeded in 100 μL of the medium.
The cell lines were seeded in 96-well plates and cultured according to the methodology described in the previous section. Cells were then treated with the novel derivatives MM118 and MM119 and the reference compound temozolomide (TMZ) (Sigma-Aldrich, St. Louis, MO, USA) at concentrations of 0.1, 0.25, 0.5, 1.0, 2.5, 5.0, and 10.0 μM for 24 h. The MTT assay was performed using a solution of 3–(4,5-dimethyl-2-thiazolyl)-2,5-diphenyl-2H-tetrazolium bromide (Sigma-Aldrich, St. Louis, MO, USA) at a concentration of 5 mg/mL in phosphate-buffered saline without calcium and magnesium (Corning, Kennebunk, ME, USA). After 24 h incubation with test compounds, 10 μL MTT solution was added to each well, and cells were incubated for another 2 h at 37 °C. The cells were then lysed in 100 μL lysis buffer (25 mM HCl, 2% acetic acid, 3% DMF, and 5% SDS, adjusted to pH 4.7). Absorbance was measured at 570 nm using an Absorbance 96 microplate reader (Byonoy GmbH, Hamburg, Germany).

[2] = system: A172; assay: Mitochondrial membrane potential (JC-1), A172; type: cell-based, human; settings: A172, 1.5 μM, 24 h
Description: The impact of the novel compounds on mitochondrial membrane potential (ΔΨm) was examined. […] In this study, the fluorochrome JC-1 was employed, which, in cells with normally functioning mitochondria, aggregates and accumulates in the hyperpolarized mitochondrial membrane, emitting a red colour. Conversely, when the membrane is damaged, JC-1 breaks down into monomers, emitting green fluorescence. […] For the U-87 MG cell line, these parameters were equal to 54.88 ± 8.36% and 56.13 ± 13.97% of the cell population.
JC-1 (1,1′,3,3′-Tetraethyl-5,5′,6,6′-tetrachloroimidacarbocyanine iodide) (BD Biosciences, San Diego, CA, USA), a lipophilic fluorochrome, was used to evaluate changes in mitochondrial membrane potential. After treatment, cancer cells at a concentration of 1 × 10^6 cells/mL were collected and rinsed twice with PBS. Then, 500 μL JC-1 working solution was added to each sample according to the manufacturer’s protocol. The samples were then incubated for 15 min at 37 °C in a CO2 incubator. After incubation, samples were washed twice with an assay buffer, and 500 μL of each sample was transferred to a BD FACSCanto II flow cytometer (Becton Dickinson Biosciences, San Jose, CA, USA) for analysis, with 10,000 events recorded per sample. Data were analysed using FACSDiva software version 6.1.3 (BD Biosciences Systems, San Jose, CA, USA).

[3] = system: caspase 8; assay: Caspase 8 activation (FAM FLICA), A172; type: cell-based, human; settings: A172, 1.5 μM, 24 h
Description: (§1) The activity of caspase 1, caspase 3/7, caspase 8, and caspase 9 was evaluated through the utilisation of FAM FLICA Caspase Assays (ImmunoChemistry Technologies, Bloomington, MN, USA), in accordance with the established protocols. Following treatment with the compounds, the cells were collected at a concentration of 1 × 10^6 cells/mL, washed twice with cold PBS, and resuspended in 290 μL of PBS. The subsequent step involved the addition of 10 μL of 30X FLICA solution, followed by incubation at 37 °C in the absence of light for one hour. Then, 2 ml of Apoptosis Wash Buffer was added, and the samples were washed twice. A 300 μL aliquot of each sample was transferred to a BD FACSCanto II flow cytometer (Becton Dickinson Biosciences, San Jose, CA, USA), where 10,000 events per sample were recorded. The resulting data was then analysed using FACSDiva software, version 6.1.3 (BD Biosciences Systems, San Jose, CA, USA).

[4] = system: caspase 9; assay: Caspase 9 activation (FAM FLICA), A172; type: cell-based, human; settings: A172, 1.5 μM, 24 h
Description: as §1

[5] = system: caspase 9; assay: Caspase 9 activation (FAM FLICA), U-87 MG; type: cell-based, human; settings: 1.5 μM, 24 h
Description: as §1

[6] = system: NF-κB; assay: NF-kB staining (immunofluorescence, confocal); type: cell-based; settings: 1.5 μM, 24 h of treatment
Description: Location of NF-kB was evaluated by immunofluorescence staining. Cells were cultured on sterile coverslips placed in 6-well plates and treated with compounds MM118, MM119, and TMZ at a concentration of 1.5 μM. After 24 h of treatment, cells were fixed with 4% paraformaldehyde for 15 min at room temperature, then permeabilized with 0.1% Triton X-100 in PBS for 10 min. Following permeabilization, cells were blocked with 2% BSA (bovine serum albumin; Cell Signalling Technology, Danvers, MA, USA) in PBS for 30 min to prevent non-specific binding. Subsequently, cells were incubated overnight at 4 °C with a NF-KB antibody directly conjugated with Alexa Fluor 647 (#D14E12; Cell Signalling Technology, Danvers, MA, USA). The next day, after washing with PBS, nuclei were counterstained with DAPI (4′,6-diamidino-2-phenylindole; Sigma-Aldrich, St. Louis, MO, USA) for 5 min at room temperature. Coverslips were mounted onto glass slides using an antifade mounting medium and imaged using a Stellaris 5 confocal microscope (Leica Microsystems, GmbH, Wetzlar, Germany). Images were analysed using ImageJ software (Bethesda, MD, USA).

SMILES	IC50 [1] [µM]	Decreased ΔΨm (cell population) [2] [%]	Active caspase 8 (cell population) [3]	Active caspase 9 (cell population) [4]	Active caspase 9 (cell population) [5]	NF-κB localisation [6]
CCC(CO)NS(=O)(=O)c1ccc(-n2nc(C)c3nc4nnnn4nc32)cc1 (stereo in doubt) [MM118, N-(R)-(1-hydroxy-but-2-yl)-4-[7-methyl-5H-pyrazolo[4,3-e]tetrazolo[1,5-b][1]^,[2]^,[4]triazin-5-yl)]benzenesulfonamide]	0.471 ± 0.191	70.43 ± 1.44	42.85 ± 5.36%	31.55 ± 8.07%	67.23 ± 1.66%	NF-κB translocates to the cell nucleus
Cn1nnc2c(C(N)=O)ncn2c1=O [TMZ, temozolomide, reference compound]	> 10	20.25 ± 9.20	No significant statistical differences	no significant differences	no significant differences	NF-κB translocates to the cell nucleus
CCC(CO)NS(=O)(=O)c1ccc(-n2nc(C)c3nc4nnnn4nc32)cc1 (stereo in doubt) [MM119, N-(S)-(1-hydroxy-but-2-yl)-4-[7-methyl-5H-pyrazolo[4,3-e]tetrazolo[1,5-b][1]^,[2]^,[4]triazin-5-yl)]benzenesulfonamide]	0.67 ± 0.173	64.38 ± 1.90	34.35 ± 7.58%	25.50 ± 6.04%	51.45 ± 1.63%	NF-κB translocates to the cell nucleus

— paper PMC12679848, “Sulphonamide derivatives with a triazine core as novel inducers of apoptosis and pyroptosis in glioblastoma multiforme cells” (Journal of Enzyme Inhibition and Medicinal Chemistry, 2025)
